{"source": "patent EP1203770A1", "about": "(priority 1992, dated 1994)", "molecular_target": "T1, HIV-1 protease (Human immunodeficiency virus type 1 group M subtype B, UniProt P04585)", "T1 construct": "The protease (or proteinase), consisting of only 99 amino acids, is among the smallest enzymes known", "test": "In vitro HIV protease inhibitory assay (HIV Protease FITC Assay)", "format": "biochemical", "settings": "for inhibition at 0.123 µM / inhibition at 0.37 µM / inhibition at 1.1 µM / inhibition at 3.3 µM / inhibition at 10 µM / inhibition at 30 µM: read-out: HIV-1 Protease % Inhib", "summary_of_the_method": "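Percent inhibition was read as fluorescence after avidin-bead capture and filtration separated FITC cleavage product from biotinylated substrate. Enzyme and substrate reacted 1 h, RT, dark, at pH 5.5 (0.1 M sodium acetate, 1.0 M NaCl, 0.05% NP-40).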", "note": "Like-named read-outs stand apart in the source and are kept apart here."}
{"smiles": "CCCCC1(Cc2ccccc2)CC(O)=C(C(C=Cc2ccccc2)c2ccccc2)C(=O)O1", "note": "(centres unmarked) [Example 217, 2H-Pyran-2-one, 6-butyl-5,6-dihydro-3-(1,3-diphenyl-2-propenyl)-4-hydroxy-6-phenylmethyl-]", "values": [{"measurement": "inhibition at 0.123 µM", "setting": "HIV-1 Dose 0.123 uM", "value": "< 10", "unit": "%"}, {"measurement": "inhibition at 0.37 µM", "setting": "HIV-1 Dose 0.370 uM", "value": "< 10", "unit": "%"}, {"measurement": "inhibition at 1.1 µM", "setting": "HIV-1 Dose 1.100 uM", "value": "< 10", "unit": "%"}, {"measurement": "inhibition at 3.3 µM", "setting": "HIV-1 Dose 3.300 uM", "value": 33.1, "unit": "%"}, {"measurement": "inhibition at 10 µM", "setting": "HIV-1 Dose 10.000 uM", "value": 62.4, "unit": "%"}, {"measurement": "inhibition at 30 µM", "setting": "HIV-1 Dose 30.000 uM", "value": 69.1, "unit": "%"}]}
{"smiles": "CCCCC1(Cc2ccccc2)CC(O)=C(C(CCc2ccccc2)c2ccccc2)C(=O)O1", "note": "(centres unmarked) [Example 218, 2H-Pyran-2-one, 6-butyl-5,6-dihydro-3-(1,3-diphenylpropyl)-4-hydroxy-6-phenylmethyl-]", "values": [{"measurement": "inhibition at 0.123 µM", "setting": "HIV-1 Dose 0.123 uM", "value": "< 10", "unit": "%"}, {"measurement": "inhibition at 0.37 µM", "setting": "HIV-1 Dose 0.370 uM", "value": "< 10", "unit": "%"}, {"measurement": "inhibition at 1.1 µM", "setting": "HIV-1 Dose 1.100 uM", "value": 21.2, "unit": "%"}, {"measurement": "inhibition at 3.3 µM", "setting": "HIV-1 Dose 3.300 uM", "value": 46, "unit": "%"}, {"measurement": "inhibition at 10 µM", "setting": "HIV-1 Dose 10.000 uM", "value": 59.3, "unit": "%"}, {"measurement": "inhibition at 30 µM", "setting": "HIV-1 Dose 30.000 uM", "value": 58.2, "unit": "%"}]}
{"smiles": "C=CC(C1=C(O)CC(CCCC)(Cc2ccccc2)OC1=O)c1ccccc1", "note": "(centres unmarked) [Example 219, 2H-Pyran-2-one, 6-butyl-5,6-dihydro-4-hydroxy-6-phenylmethyl-3-(1-phenyl-2-propenyl)-]", "values": [{"measurement": "inhibition at 0.123 µM", "setting": "HIV-1 Dose 0.123 uM", "value": "< 10", "unit": "%"}, {"measurement": "inhibition at 0.37 µM", "setting": "HIV-1 Dose 0.370 uM", "value": "< 10", "unit": "%"}, {"measurement": "inhibition at 1.1 µM", "setting": "HIV-1 Dose 1.100 uM", "value": 35.3, "unit": "%"}, {"measurement": "inhibition at 3.3 µM", "setting": "HIV-1 Dose 3.300 uM", "value": 65.6, "unit": "%"}, {"measurement": "inhibition at 10 µM", "setting": "HIV-1 Dose 10.000 uM", "value": 79.7, "unit": "%"}, {"measurement": "inhibition at 30 µM", "setting": "HIV-1 Dose 30.000 uM", "value": 90.2, "unit": "%"}]}
{"smiles": "CCCCC1(Cc2ccccc2)CC(O)=C(C(CC)c2ccccc2)C(=O)O1", "note": "(centres unmarked) [Example 220, 2H-Pyran-2-one, 6-butyl-5,6-dihydro-4-hydroxy-6-phenylmethyl-3-(1-phenylpropyl)-]", "values": [{"measurement": "inhibition at 0.123 µM", "setting": "HIV-1 Dose 0.123 uM", "value": "< 10", "unit": "%"}, {"measurement": "inhibition at 0.37 µM", "setting": "HIV-1 Dose 0.370 uM", "value": "< 10", "unit": "%"}, {"measurement": "inhibition at 1.1 µM", "setting": "HIV-1 Dose 1.100 uM", "value": 21.3, "unit": "%"}, {"measurement": "inhibition at 3.3 µM", "setting": "HIV-1 Dose 3.300 uM", "value": 51.6, "unit": "%"}, {"measurement": "inhibition at 10 µM", "setting": "HIV-1 Dose 10.000 uM", "value": 68.4, "unit": "%"}, {"measurement": "inhibition at 30 µM", "setting": "HIV-1 Dose 30.000 uM", "value": 62.2, "unit": "%"}]}
{"smiles": "CCC(Cc1ccccc1)c1cc(O)c(C(c2cccc(NC(=O)[C@H](C)NC(=O)OC(C)(C)C)c2)C2CC2)c(=O)o1", "note": "(stereo partly drawn) [Example 221, 3-(α-Cyclopropyl-meta-(tert-butyloxycarbonyl-L-alanylamino)benzyl)-6-(α-ethylphenethyl)-4-hydroxy-2H-pyran-2-one]", "values": [{"measurement": "inhibition at 0.123 µM", "setting": "HIV-1 Dose 0.123 uM", "value": 43.1, "unit": "%"}, {"measurement": "inhibition at 0.37 µM", "setting": "HIV-1 Dose 0.370 uM", "value": 72.1, "unit": "%"}, {"measurement": "inhibition at 1.1 µM", "setting": "HIV-1 Dose 1.100 uM", "value": 87.3, "unit": "%"}, {"measurement": "inhibition at 3.3 µM", "setting": "HIV-1 Dose 3.300 uM", "value": 102, "unit": "%"}, {"measurement": "inhibition at 10 µM", "setting": "HIV-1 Dose 10.000 uM", "value": 108, "unit": "%"}, {"measurement": "inhibition at 30 µM", "setting": "HIV-1 Dose 30.000 uM", "value": 101, "unit": "%"}, {"measurement": "Ki", "setting": "read-out: HIV-1 FITC Ki", "value": 14.6, "unit": "nM"}]}
{"smiles": "CCC(Cc1ccccc1)c1cc(O)c(C(c2cccc(NC(=O)[C@H](Cc3cn(S(=O)(=O)c4ccc(C)cc4)cn3)NC(=O)OC(C)(C)C)c2)C2CC2)c(=O)o1", "note": "(stereo partly drawn) [Example 222, 3-(α-Cyclopropyl-meta-(N-α-tert-butyloxycarbonyl-N-im-p-toluenesulfonyl-L-histidylamino)benzyl)-6-(α-ethylphenethyl)-4-hydroxy-2H-pyran-2-one]", "values": [{"measurement": "inhibition at 0.123 µM", "setting": "HIV-1 Dose 0.123 uM", "value": 19, "unit": "%"}, {"measurement": "inhibition at 0.37 µM", "setting": "HIV-1 Dose 0.370 uM", "value": 51.7, "unit": "%"}, {"measurement": "inhibition at 1.1 µM", "setting": "HIV-1 Dose 1.100 uM", "value": 75.8, "unit": "%"}, {"measurement": "inhibition at 3.3 µM", "setting": "HIV-1 Dose 3.300 uM", "value": 91, "unit": "%"}, {"measurement": "inhibition at 10 µM", "setting": "HIV-1 Dose 10.000 uM", "value": 98.3, "unit": "%"}, {"measurement": "inhibition at 30 µM", "setting": "HIV-1 Dose 30.000 uM", "value": 95.8, "unit": "%"}, {"measurement": "Ki", "setting": "read-out: HIV-1 FITC Ki", "value": 18.5, "unit": "nM"}]}
{"smiles": "CCC(Cc1ccccc1)c1cc(O)c(C(c2cccc(NS(=O)(=O)c3ccc(Cl)cc3)c2)C2CC2)c(=O)o1", "note": "(stereo not drawn) [Example 224, 3-(α-Cyclopropyl-meta-(4-chlorophenylsulfonylamino)benzyl)-6-(α-ethylphenethyl)-4-hydroxy-2H-pyran-2-one]", "values": [{"measurement": "Ki", "value": 14.7, "unit": "nM"}, {"measurement": "inhibition at 0.123 µM", "value": 46.9, "unit": "%"}, {"measurement": "inhibition at 0.37 µM", "value": 76.9, "unit": "%"}, {"measurement": "inhibition at 1.1 µM", "value": 99.6, "unit": "%"}, {"measurement": "inhibition at 3.3 µM", "value": 97.1, "unit": "%"}, {"measurement": "inhibition at 10 µM", "value": 110, "unit": "%"}, {"measurement": "inhibition at 30 µM", "value": 105, "unit": "%"}]}
{"smiles": "CCC(Cc1ccccc1)c1cc(O)c(C(c2cccc(NC(=O)CC[C@H](NC(=O)OCc3ccccc3)C(=O)OCc3ccccc3)c2)C2CC2)c(=O)o1", "note": "(stereo partly drawn) [Example 225, 3-(α-Cyclopropyl-meta-(N-benzyloxycarbonyl-O-α-benzyl-L-glutamylamino)benzyl)-6-(α-ethylphenethyl)-4-hydroxy-2H-pyran-2-one]", "values": [{"measurement": "inhibition at 0.123 µM", "setting": "HIV-1 Dose 0.123 uM", "value": "< 10", "unit": "%"}, {"measurement": "inhibition at 0.37 µM", "setting": "HIV-1 Dose 0.370 uM", "value": "< 10", "unit": "%"}, {"measurement": "inhibition at 1.1 µM", "setting": "HIV-1 Dose 1.100 uM", "value": "< 10", "unit": "%"}, {"measurement": "inhibition at 3.3 µM", "setting": "HIV-1 Dose 3.300 uM", "value": 21, "unit": "%"}, {"measurement": "inhibition at 10 µM", "setting": "HIV-1 Dose 10.000 uM", "value": 30.6, "unit": "%"}, {"measurement": "inhibition at 30 µM", "setting": "HIV-1 Dose 30.000 uM", "value": 35.5, "unit": "%"}]}
{"smiles": "CCC(Cc1ccccc1)c1cc(O)c(C(c2cccc(NC(=O)[C@H](Cc3c[nH]cn3)NC(=O)OC(C)(C)C)c2)C2CC2)c(=O)o1", "note": "(stereo partly drawn) [Example 226, 3-(α-Cyclopropyl-meta-(N-α-tert-butyloxycarbonyl-L-histidylamino)benzyl)-6-(α-ethylphenethyl)-4-hydroxy-2H-pyran-2-one]", "values": [{"measurement": "Ki", "setting": "read-out: HIV-1 FITC Ki", "value": 4, "unit": "nM"}, {"measurement": "inhibition at 0.123 µM", "value": 73.4, "unit": "%"}, {"measurement": "inhibition at 0.37 µM", "value": 93.9, "unit": "%"}, {"measurement": "inhibition at 1.1 µM", "value": 106, "unit": "%"}, {"measurement": "inhibition at 3.3 µM", "value": 104, "unit": "%"}, {"measurement": "inhibition at 10 µM", "value": 101, "unit": "%"}, {"measurement": "inhibition at 30 µM", "value": 98.3, "unit": "%"}]}
{"smiles": "CCC(Cc1ccccc1)c1cc(O)c(C(c2cccc(NC(=O)c3ccc(C#N)cc3)c2)C2CC2)c(=O)o1", "note": "(centres unmarked) [Example 227]", "values": [{"measurement": "inhibition at 0.123 µM", "setting": "HIV-1 Dose 0.123 uM", "value": "< 10", "unit": "%"}, {"measurement": "inhibition at 0.37 µM", "setting": "HIV-1 Dose 0.370 uM", "value": 19.6, "unit": "%"}, {"measurement": "inhibition at 1.1 µM", "setting": "HIV-1 Dose 1.100 uM", "value": 49.2, "unit": "%"}, {"measurement": "inhibition at 3.3 µM", "setting": "HIV-1 Dose 3.300 uM", "value": 80.2, "unit": "%"}, {"measurement": "inhibition at 10 µM", "setting": "HIV-1 Dose 10.000 uM", "value": 89.8, "unit": "%"}, {"measurement": "inhibition at 30 µM", "setting": "HIV-1 Dose 30.000 uM", "value": 85.4, "unit": "%"}]}
{"smiles": "CCC(Cc1ccccc1)c1cc(O)c(C(c2cccc(NS(=O)(=O)c3cccc4cccnc34)c2)C2CC2)c(=O)o1", "note": "(stereo not drawn) [Example 229, 3-(α-Cyclopropyl-meta-(8-quinolinesulfonylamino)benzyl)-6-(α-ethylphenethyl)-4-hydroxy-2H-pyran-2-one]", "values": [{"measurement": "inhibition at 0.123 µM", "setting": "HIV-1 Dose 0.123 uM", "value": 52.2, "unit": "%"}, {"measurement": "inhibition at 0.37 µM", "setting": "HIV-1 Dose 0.370 uM", "value": 95.9, "unit": "%"}, {"measurement": "inhibition at 1.1 µM", "setting": "HIV-1 Dose 1.100 uM", "value": 106, "unit": "%"}, {"measurement": "inhibition at 3.3 µM", "setting": "HIV-1 Dose 3.300 uM", "value": 106, "unit": "%"}, {"measurement": "inhibition at 10 µM", "setting": "HIV-1 Dose 10.000 uM", "value": 113, "unit": "%"}, {"measurement": "inhibition at 30 µM", "setting": "HIV-1 Dose 30.000 uM", "value": 102, "unit": "%"}, {"measurement": "Ki", "setting": "read-out: HIV-1 FITC Ki", "value": 3.5, "unit": "nM"}]}
